# Measured values: patent publication US20030092126A1, “Fragments of leptin (ob protein)” (SmithKline Beecham p.l.c., priority 1996, published 2003)
# B1: m-Leptin: murine leptin (protein, UniProt P41160 22-167, looked up)
# Leptin: VPIQKVQDDTKTLIKTIVTRINDISHTQSVSAKQRVTGLDFIPGLHPILSLSKMDQTLAVYQQVLTSLPSQNVLQIANDLENLRDLLHLLAFSKSCSLPQTSGLQKPESLDGVLEASLYSTEVVALSRLQGSLQDILQQLDVSPEC
# Tested on: SD rats
# Experiment: Effect of leptin fragments given intracerebroventricularly on food intake and body weight in SD rats
# Format: in vivo
# Details: single icv injection, measured 24 h later, n = 8, * P < 0.05
# Description: Effect of Leptin Fragments on Food Intake in SD Rats
# Rats are pre-treated with Synulox (0.1 ml/100 g) approx 1 hour before anaesthesia, and then anaesthetised with Domitor (0.04 ml/100 g i.m.) and sublimase (0.9 ml/100 g i.p.) Each rat has a cannula implanted stereotaxically into the lateral brain ventricle under sterile conditions. Anaesthesia is then reversed using Antisedan and Nubain (50% v/v :50% v/v 0.02 m1/100 g) I.P. After surgery each rat receives 0.05 ml Zenecarp.
# Experiment 1: Following surgery the body weight of each animal was monitored daily throughout the procedure.
# In order to verify that the cannula was in the lateral ventricle, Angiotensin II (100 ng/5 μl ) was injected icv and water intake was monitored for 5 min after injection.
# 24 hour food intake was measured on day 5 and 6 after surgery. On day 6 the animals were divided according to their body weight into 3 groups (a,b and c, 8 rats per group) and then fasted overnight. On the day of experiment (day 7) rats were injected icv as follows::
# group a-vehicle (PBS, phosphate buffer solution, 5 μl/rat);
# group b-human leptin (11.5 μg/5 μl); and
# group c-leptin tryptic digest (30 μg/5 μl).
# A known quantity of food in excess of the daily requirement was supplied to the rats immediately after the icv injection procedure was completed. Food intake and body weight were then measured 24h later.
# Experiment 2: A separate group of animals was prepared exactly as described above but on the day of experiment after overnight fast, groups of rats were injected as follows:
# group a-vehicle (PBS 5 μl /rat);
# group b-human leptin ([…]);
# group c-murine leptin (10 μg/5 μl);
# group d-ob 57-74, sequence VTGLDFIPGLHPILTLSK (3.33 μg/5 μl);
# Again a pre-weight quantity of food, in excess of the daily requirement, was re-given following the injection; change in body weight and the quantity of food consumed were recorded 24h later.
# [1] = Experiment 2, Table 2, overnight fast, h-leptin 8.75 μg/rat, m-leptin 10 μg/rat, fragment 57-74 3.33 μg/rat
# [2] = Experiment 1, Table 1, overnight fast, h-leptin 11.5 μg/rat, tryptic digest 30 μg/rat
Molecule,24 h food intake [1] [g],Bwt Change [1],24 h food intake [2],Bwt Change [2]
"VTGLDFIPGLHPILTLSK [Leptin fragment 57-74, fragment of human ob protein, amino acid residues 57 to 74]",33.6 ± 0.9,26.8 ± 1.2* g/24 h,–,–
h-Leptin: human leptin (human ob protein),33.7 ± 1.6,24.5 ± 3.7 g/24 h,30.62 ± 1.5* g,22.88 ± 2.05* g/24 h
B1,31.3 ± 1.7,23.7 ± 2.18* g/24 h,–,–
